According to PubChem BioAssay (NCI):
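Interpolation was linear, between the two tested concentrations surrounding the appropriate level; five concentrations were tested over 48 hours in 96-well plates. GI50 = concentration required for 50% inhibition of growth. TGI: total growth inhibition.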

Experiments:
Test in all cases: growth of human tumour cells (NCI), 48 h
[1] = tested on: IGROV1 ovarian
[2] = tested on: OVCAR-8 ovarian
[3] = tested on: MDA-MB-231 breast
[4] = tested on: SW-620 colon
[5] = tested on: EKVX NSCLC
[6] = tested on: RPMI-8226 leukemia
[7] = tested on: M14 melanoma
[8] = tested on: SN12C renal
[9] = tested on: NCI-H226 lung
[10] = tested on: OVCAR-5 ovarian
[11] = tested on: SK-MEL-5 melanoma
[12] = tested on: K-562 leukemia
[13] = tested on: HCT-116 colon
[14] = tested on: SK-MEL-28 melanoma
[15] = tested on: UACC-257 melanoma
[16] = tested on: HCT-15 colon
[17] = tested on: RXF 393 renal
[18] = tested on: OVCAR-4 ovarian
[19] = tested on: NCI/ADR-RES ovarian
[20] = tested on: U251 CNS
[21] = tested on: HT29 colon
[22] = tested on: KM12 colon
[23] = tested on: NCI-H522 lung
[24] = tested on: MCF7 breast
[25] = tested on: ACHN renal
[26] = tested on: A498 renal
[27] = tested on: A549 NSCLC
[28] = tested on: HOP-62 NSCLC
[29] = tested on: CCRF-CEM leukemia
[30] = tested on: NCI-H23 lung
[31] = tested on: NCI-H460 lung
[32] = tested on: SK-OV-3 ovarian
[33] = tested on: OVCAR-3 ovarian
[34] = tested on: HS 578T breast
[35] = tested on: T-47D breast
[36] = tested on: SNB-75 CNS
[37] = tested on: COLO 205 colon
[38] = tested on: HOP-92 NSCLC
[39] = tested on: MOLT-4 leukemia
[40] = tested on: SF-539 CNS
[41] = tested on: LOX IMVI melanoma
[42] = tested on: 786-0 renal
[43] = tested on: CAKI-1 renal
[44] = tested on: UACC-62 melanoma
[45] = tested on: SF-268 CNS
[46] = tested on: UO-31 renal
[47] = tested on: SK-MEL-2 melanoma
[48] = tested on: PC-3 prostate
[49] = tested on: HCC-2998 colon
[50] = tested on: SF-295 CNS
[51] = tested on: DU-145 prostate
[52] = tested on: SNB-19 CNS
[53] = tested on: BT-549 breast
[54] = tested on: MDA-MB-435
[55] = tested on: HL-60(TB) leukemia
[56] = tested on: MALME-3M melanoma
[57] = tested on: TK-10 renal

c1ccc(N2CCN(CN3CCN(c4ccccc4)C3)C2)cc1
GI50 [1]: 25.5 µM | TGI [1]: > 100 µM | GI50 [2]: > 100 µM | TGI [2]: > 100 µM | GI50 [3]: > 100 µM | TGI [3]: > 100 µM | GI50 [4]: 60.7 µM | TGI [4]: > 100 µM | GI50 [5]: > 100 µM | TGI [5]: > 100 µM | GI50 [6]: 60.9 µM | TGI [6]: > 100 µM | GI50 [7]: > 100 µM | TGI [7]: > 100 µM | GI50 [8]: > 100 µM | TGI [8]: > 100 µM | GI50 [9]: > 100 µM | TGI [9]: > 100 µM | GI50 [10]: > 100 µM | TGI [10]: > 100 µM | GI50 [11]: > 100 µM | TGI [11]: > 100 µM | GI50 [12]: 3.9 µM | TGI [12]: > 100 µM | GI50 [13]: 41.9 µM | TGI [13]: > 100 µM | GI50 [14]: > 100 µM | TGI [14]: > 100 µM | GI50 [15]: > 100 µM | TGI [15]: > 100 µM | GI50 [16]: > 100 µM | TGI [16]: > 100 µM | GI50 [17]: > 100 µM | TGI [17]: > 100 µM | GI50 [18]: > 100 µM | TGI [18]: > 100 µM | GI50 [19]: > 100 µM | TGI [19]: > 100 µM | GI50 [20]: > 100 µM | TGI [20]: > 100 µM | GI50 [21]: > 100 µM | TGI [21]: > 100 µM | GI50 [22]: > 100 µM | TGI [22]: > 100 µM | GI50 [23]: > 100 µM | TGI [23]: > 100 µM | GI50 [24]: > 100 µM | TGI [24]: > 100 µM | GI50 [25]: 54 µM | TGI [25]: > 100 µM | GI50 [26]: 37.2 µM | TGI [26]: > 100 µM | GI50 [27]: > 100 µM | TGI [27]: > 100 µM | GI50 [28]: > 100 µM | TGI [28]: > 100 µM | GI50 [29]: 42 µM | TGI [29]: > 100 µM | GI50 [30]: > 100 µM | TGI [30]: > 100 µM | GI50 [31]: > 100 µM | TGI [31]: > 100 µM | GI50 [32]: > 100 µM | TGI [32]: > 100 µM | GI50 [33]: > 100 µM | TGI [33]: > 100 µM | GI50 [34]: > 100 µM | TGI [34]: > 100 µM | GI50 [35]: > 100 µM | TGI [35]: > 100 µM | GI50 [36]: > 100 µM | TGI [36]: > 100 µM | GI50 [37]: > 100 µM | TGI [37]: > 100 µM | GI50 [38]: > 100 µM | TGI [38]: > 100 µM | GI50 [39]: 23.8 µM | TGI [39]: > 100 µM | GI50 [40]: > 100 µM | TGI [40]: > 100 µM | GI50 [41]: 66.6 µM | TGI [41]: > 100 µM | GI50 [42]: > 100 µM | TGI [42]: > 100 µM | GI50 [43]: > 100 µM | TGI [43]: > 100 µM | GI50 [44]: > 100 µM | TGI [44]: > 100 µM | GI50 [45]: > 100 µM | TGI [45]: > 100 µM | GI50 [46]: > 100 µM | TGI [46]: > 100 µM | GI50 [47]: > 100 µM | TGI [47]: > 100 µM | GI50 [48]: > 100 µM | TGI [48]: > 100 µM | GI50 [49]: > 100 µM | TGI [49]: > 100 µM | GI50 [50]: > 100 µM | TGI [50]: > 100 µM | GI50 [51]: > 100 µM | TGI [51]: > 100 µM | GI50 [52]: > 100 µM | TGI [52]: > 100 µM | GI50 [53]: > 100 µM | TGI [53]: > 100 µM | GI50 [54]: > 100 µM | TGI [54]: > 100 µM

O=C1C[C@@H](c2ccc(O)cc2)[C@@]2(O1)C(=O)O[C@H]([C@@H](O)CO)[C@@H]2O
TGI [1]: > 100 µM | TGI [2]: > 100 µM | TGI [3]: > 100 µM | TGI [4]: > 100 µM | TGI [5]: > 100 µM | TGI [6]: > 100 µM | TGI [7]: > 100 µM | TGI [8]: > 100 µM | TGI [9]: > 100 µM | TGI [10]: > 100 µM | TGI [11]: > 100 µM | TGI [12]: > 100 µM | TGI [13]: > 100 µM | TGI [14]: > 100 µM | TGI [15]: > 100 µM | TGI [16]: > 100 µM | TGI [18]: > 100 µM | TGI [19]: > 100 µM | TGI [20]: > 100 µM | TGI [21]: > 100 µM | TGI [22]: > 100 µM | TGI [23]: > 100 µM | TGI [24]: > 100 µM | TGI [55]: > 100 µM | TGI [25]: > 100 µM | TGI [26]: > 100 µM | TGI [27]: > 100 µM | TGI [29]: > 100 µM | TGI [30]: > 100 µM | TGI [31]: > 100 µM | TGI [56]: > 100 µM | TGI [32]: > 100 µM | TGI [33]: > 100 µM | TGI [34]: > 100 µM | TGI [35]: > 100 µM | TGI [36]: > 100 µM | TGI [37]: > 100 µM | TGI [38]: > 100 µM | TGI [39]: > 100 µM | TGI [40]: > 100 µM | TGI [41]: > 100 µM | TGI [42]: > 100 µM | TGI [43]: > 100 µM | TGI [44]: > 100 µM | TGI [45]: > 100 µM | TGI [46]: > 100 µM | TGI [47]: > 100 µM | TGI [57]: > 100 µM | TGI [48]: > 100 µM | TGI [49]: > 100 µM | TGI [50]: > 100 µM | TGI [51]: > 100 µM | TGI [52]: > 100 µM | TGI [53]: > 100 µM | TGI [54]: > 100 µM
